Literature values in US8529952B2 (Ethypharm, priority 1999, dated 2013).

- mean concentration in the plasma (dose of 300 mg of fenofibrate per day): ~15 micrograms/ml
- time to maximum concentration in the plasma after ingestion (on average): five
- half-life for elimination from the plasma (plasma): ~20 h
SMILES: CC(C)(Oc1ccc(C(=O)c2ccc(Cl)cc2)cc1)C(=O)O [fenofibric acid]
